In experiment [1] the target is T1, EZH2 within the PRC2 complex (Homo sapiens (Human), UniProt Q15910). Put plainly: EZH2 methyltransferase SPA, mononucleosome substrate (Assay Protocol 1). The class given is biochemical. To be noted: HeLa mononucleosome substrate, 3H-SAM, ≦10 nM approaches limit of detection. How it is done: Compounds contained herein were evaluated for their ability to inhibit the methyltransferase activity of EZH2 within the PRC2 complex. Human PRC2 complex was prepared by co-expressing each of the 5 member proteins (FLAG-EZH2, EED, SUZ12, RbAp48, AEBP2) in Sf9 cells followed by co-purification. Enzyme activity was measured in a scintillation proximity assay (SPA) where a tritiated methyl group is transferred from 3H-SAM to a lysine residue on Histone H3 of a mononucleosome, purified from HeLa cells. Mononucleosomes were captured on SPA beads and the resulting signal is read on a ViewLux plate reader.
Part A. Compound Preparation
• 1. Prepare 10 mM stock of compounds from solid in 100% DMSO. • 2. Set up an 11-point serial dilution (1:3 dilution, top concentration 10 mM) in 100% DMSO for each test compound in a 384 well plate leaving columns 6 and 18 for DMSO controls. • 3. Dispense 100 nL of compound from the dilution plate into reaction plates (Grenier Bio-One, 384-well, Cat#784075). Part B. Reagent Preparation Prepare the following solutions: • 1. 50 mM Tris-HCl, pH 8: Per 1 L of base buffer, combine 1 M Tris-HCl, pH 8 (50 mL) and distilled water (950 mL). • 2. 1× Assay Buffer: Per 10 mL of 1× Assay Buffer, combine 50 mM Tris-HCl, pH 8 (9958 uL), 1 M MgCl2 (20 uL), 2 M DTT (20 uL), and 10% Tween-20 (2 uL) to provide a final concentration of 50 mM Tris-HCl, pH 8, 2 mM MgCl2, 4 mM DTT, 0.002% Tween-20. • 3. 2× Enzyme Solution: Per 10 mL of 2× Enzyme Solution, combine 1× Assay Buffer and PRC2 complex to provide a final enzyme concentration of 10 nM. • 4. SPA Bead Suspension: Per 1 mL of SPA Bead Suspension, combine PS-PEI coated LEADSeeker beads (40 mg) and H2O (1 mL) to provide a final concentration of 40 mg/mL. • 5. 2× Substrate Solution: Per 10 mL of 2× Substrate Solution, combine 1× Assay Buffer (9728.55 uL), 800 ug/mL mononucleosomes (125 uL), 1 mM cold SAM (4 uL), and 7.02 uM 3H-SAM (142.45 uL; 0.55 mCi/mL) to provide a final concentration of 5 ug/mL nucleosomes, 0.2 uM cold SAM, and 0.05 uM 3H-SAM. • 6. 2.67× Quench/Bead Mixture: Per 10 mL of 2.67× Quench/Bead Mixture, combine ddH2O (9358 uL), 10 mM cold SAM (267 uL), 40 mg/mL Bead Suspension (375 uL) to provide a final concentration of 100 uM cold SAM and 0.5 mg/mL SPA beads. Part C. Assay Reaction in 384-well Grenier Bio-One Plates Compound Addition • 1. Dispense 100 nL/well of 100× Compound to test wells (as noted above). • 2. Dispense 100 nL/well of 100% DMSO to columns 6 & 18 for high and low controls, respectively. Assay • 1. Dispense 5 uL/well of 1× Assay Buffer to column 18 (low control reactions). • 2. Dispense 5 uL/well of 2× Enzyme Solution to columns 1-17, 19-24. • 3. Spin assay plates for ˜1 min at 500 rpm. • 4. Stack the assay plates, covering the top plate. • 5. Incubate the compound/DMSO with the enzyme for 30 min at room temperature. • 6. Dispense 5 uL/well of 2× Substrate Solution to columns 1-24. • 7. Spin assay plates for ˜1 min at 500 rpm. • 8. Stack the assay plates, covering the top plate. • 9. Incubate the assay plates at room temperature for 1 hour. Quench/Bead Addition • 1. Dispense 5 uL/well of the 3× Quench/Bead Mixture to columns 1-24. • 2. Seal the top of each assay plate with adhesive TopSeal. • 3. Spin assay plates for ˜1 min at 500 rpm. • 4. Equilibrate the plates for >20 min. Read plates • 1. Read the assay plates on the Viewlux Plate Reader utilizing the 613 nm emission filter with a 300 s read time.
Reagent addition can be done manually or with automated liquid handler. • The final DMSO concentration in this assay is 1%. • The positive control is in column 6; negative control is in column 18. • Final starting concentration of compounds is 100 µM. Results
Percent inhibition was calculated relative to the DMSO control for each compound concentration and the resulting values were fit using standard IC50 fitting parameters within the ABASE data fitting software package.

For experiment [2], the target named is T1, EZH2 within the PRC2 complex. Put plainly: EZH2 methyltransferase SPA, biotinylated histone H3K27 peptide substrate (Assay Protocol 2). The class given is biochemical. As to conditions: 3H-SAM, ≦10 nM approaches limit of detection. The procedure, abridged:
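Scintillation proximity read-out of 3H-methyl transfer onto biotinylated unmethylated H3K27 peptide (10 uM) captured on streptavidin beads; SAM 0.15 uM tritiated plus 2.85 uM cold.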

As usually defined, the IC50 is the concentration that gives 50% inhibition.

T1 sequence (Q15910 whole entry): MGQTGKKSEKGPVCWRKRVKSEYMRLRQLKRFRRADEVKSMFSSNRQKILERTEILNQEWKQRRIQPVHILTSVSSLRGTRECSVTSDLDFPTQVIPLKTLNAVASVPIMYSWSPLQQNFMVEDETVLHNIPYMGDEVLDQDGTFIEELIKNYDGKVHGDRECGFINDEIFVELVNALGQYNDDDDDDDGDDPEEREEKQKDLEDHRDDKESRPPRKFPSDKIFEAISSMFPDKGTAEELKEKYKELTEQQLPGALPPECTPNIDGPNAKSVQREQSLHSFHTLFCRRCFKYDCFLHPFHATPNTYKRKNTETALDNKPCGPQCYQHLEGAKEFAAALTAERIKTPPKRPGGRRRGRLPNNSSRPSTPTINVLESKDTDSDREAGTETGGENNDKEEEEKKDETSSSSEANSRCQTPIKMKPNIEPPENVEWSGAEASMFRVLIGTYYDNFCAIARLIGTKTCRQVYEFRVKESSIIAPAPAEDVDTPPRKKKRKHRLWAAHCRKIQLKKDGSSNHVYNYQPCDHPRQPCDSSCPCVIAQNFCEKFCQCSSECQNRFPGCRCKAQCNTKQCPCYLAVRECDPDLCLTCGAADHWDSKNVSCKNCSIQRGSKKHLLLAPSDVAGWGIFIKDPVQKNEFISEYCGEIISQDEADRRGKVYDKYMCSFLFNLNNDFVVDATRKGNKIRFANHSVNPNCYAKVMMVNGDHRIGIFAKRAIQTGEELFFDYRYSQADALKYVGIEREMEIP
T1 sequence (O75530 whole entry partner): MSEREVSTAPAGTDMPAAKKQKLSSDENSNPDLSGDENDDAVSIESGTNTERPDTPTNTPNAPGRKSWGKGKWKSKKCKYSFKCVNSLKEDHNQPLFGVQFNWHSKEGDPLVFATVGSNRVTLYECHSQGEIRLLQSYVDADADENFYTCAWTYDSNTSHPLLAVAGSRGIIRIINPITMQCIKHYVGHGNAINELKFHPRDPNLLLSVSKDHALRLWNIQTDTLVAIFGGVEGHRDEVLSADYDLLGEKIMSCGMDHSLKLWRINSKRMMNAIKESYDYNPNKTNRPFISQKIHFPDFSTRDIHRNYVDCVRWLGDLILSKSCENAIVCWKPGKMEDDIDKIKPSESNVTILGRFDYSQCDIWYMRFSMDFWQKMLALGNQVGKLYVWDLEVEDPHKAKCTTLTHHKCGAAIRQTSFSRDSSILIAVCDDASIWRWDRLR
T1 sequence (Q15022 whole entry partner): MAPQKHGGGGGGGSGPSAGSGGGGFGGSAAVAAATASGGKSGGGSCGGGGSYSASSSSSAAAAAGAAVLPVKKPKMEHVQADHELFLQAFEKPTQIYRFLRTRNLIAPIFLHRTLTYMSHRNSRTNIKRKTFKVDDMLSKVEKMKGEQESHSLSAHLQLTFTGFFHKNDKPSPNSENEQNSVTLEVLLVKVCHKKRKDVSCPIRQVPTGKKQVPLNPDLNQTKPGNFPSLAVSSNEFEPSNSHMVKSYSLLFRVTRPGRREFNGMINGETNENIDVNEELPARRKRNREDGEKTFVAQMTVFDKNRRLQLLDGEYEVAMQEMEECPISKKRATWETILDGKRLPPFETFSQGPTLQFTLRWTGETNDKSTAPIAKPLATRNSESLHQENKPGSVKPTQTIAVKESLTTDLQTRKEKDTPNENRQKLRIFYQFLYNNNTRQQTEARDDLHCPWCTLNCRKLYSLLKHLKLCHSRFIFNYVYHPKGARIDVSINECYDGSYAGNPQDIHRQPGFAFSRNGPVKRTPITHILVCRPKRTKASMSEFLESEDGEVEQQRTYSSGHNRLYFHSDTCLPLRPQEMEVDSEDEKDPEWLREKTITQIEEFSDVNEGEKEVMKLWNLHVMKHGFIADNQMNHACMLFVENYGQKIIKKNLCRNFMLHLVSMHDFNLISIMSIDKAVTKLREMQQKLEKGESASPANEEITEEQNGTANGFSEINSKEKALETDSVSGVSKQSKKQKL
T1 sequence (Q09028 whole entry partner): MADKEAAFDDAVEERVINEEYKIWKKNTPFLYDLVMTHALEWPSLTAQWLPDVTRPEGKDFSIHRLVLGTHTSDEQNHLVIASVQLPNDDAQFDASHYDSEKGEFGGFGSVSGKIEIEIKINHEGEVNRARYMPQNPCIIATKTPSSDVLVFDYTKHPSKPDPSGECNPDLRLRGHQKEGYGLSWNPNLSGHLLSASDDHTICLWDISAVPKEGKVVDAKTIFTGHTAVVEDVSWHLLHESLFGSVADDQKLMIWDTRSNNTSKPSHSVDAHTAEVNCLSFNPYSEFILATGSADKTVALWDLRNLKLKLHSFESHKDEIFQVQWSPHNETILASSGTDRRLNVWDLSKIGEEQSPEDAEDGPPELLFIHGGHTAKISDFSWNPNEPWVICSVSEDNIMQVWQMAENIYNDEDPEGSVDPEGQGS
T1 sequence (Q6ZN18 whole entry partner): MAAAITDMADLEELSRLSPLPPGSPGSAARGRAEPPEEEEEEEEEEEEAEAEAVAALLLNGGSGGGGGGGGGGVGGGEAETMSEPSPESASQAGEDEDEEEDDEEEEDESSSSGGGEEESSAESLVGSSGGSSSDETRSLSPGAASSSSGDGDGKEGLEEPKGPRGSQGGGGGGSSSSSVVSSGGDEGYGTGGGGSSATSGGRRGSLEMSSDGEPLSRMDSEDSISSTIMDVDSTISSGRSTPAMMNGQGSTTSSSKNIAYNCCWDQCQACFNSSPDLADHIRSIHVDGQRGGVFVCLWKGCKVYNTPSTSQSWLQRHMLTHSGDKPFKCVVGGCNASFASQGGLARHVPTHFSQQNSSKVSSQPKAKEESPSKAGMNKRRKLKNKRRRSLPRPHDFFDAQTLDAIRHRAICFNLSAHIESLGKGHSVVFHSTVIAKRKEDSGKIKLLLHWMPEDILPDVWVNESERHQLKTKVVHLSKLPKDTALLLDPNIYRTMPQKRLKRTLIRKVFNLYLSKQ

In the case of `Cc1cc(C)c(CNC(=O)c2csc(C(O)C3CCN(C(=O)OC(C)(C)C)CC3)c2C)c(=O)[nH]1` (stereo not shown) [Example 20, tert-Butyl 4-((4-(((4,6-dimethyl-2-oxo-1,2-dihydropyridin-3-yl)methyl)carbamoyl)-3-methylthiophen-2-yl)(hydroxy)methyl)piperidine-1-carboxylate], the figures for the IC50 in experiment [1] and in experiment [2] were 0.158 µM and 1.59 µM, respectively.

For `CCN(c1scc(C(=O)NCc2c(C)cc(C)[nH]c2=O)c1C)[C@H]1CC[C@@H](N(C)C)CC1` [Example 7, N-((4,6-dimethyl-2-oxo-1,2-dihydropyridin-3-yl)methyl)-5-(((cis)-4-(dimethylamino)cyclohexyl)(ethyl)amino)-4-methylthiophene-3-carboxamide], the half-inhibitory concentration (IC50) in experiment [1] was ≤ 0.01 µM; in experiment [2] it was 0.02 µM.

For `Cc1cc(C)c(CNC(=O)c2csc(C(O)C3CCNCC3)c2C)c(=O)[nH]1` (stereo not shown) [Example 21, N-((4,6-dimethyl-2-oxo-1,2-dihydropyridin-3-yl)methyl)-5-(hydroxy(piperidin-4-yl)methyl)-4-methylthiophene-3-carboxamide], the 50% inhibitory concentration (IC50) in experiment [1] was determined as 0.1 µM; in experiment [2] it was 0.316 µM.

On to `CCN(c1scc(C(=O)NCc2c(C)cc(C)n(C)c2=O)c1C)C1CCOCC1` [Example 31, 5-(Ethyl(tetrahydro-2H-pyran-4-yl)amino)-4-methyl-N-((1,4,6-trimethyl-2-oxo-1,2-dihydropyridin-3-yl)methyl)thiophene-3-carboxamide], for which the 50% inhibitory concentration (IC50) in experiment [1] was 0.1 µM; in experiment [2], 0.794 µM.

As for `CCC(c1scc(C(=O)NCc2c(C)cc(C)[nH]c2=O)c1C)N1CCOCC1` (stereo not shown) [Example 29, N-((4,6-dimethyl-2-oxo-1,2-dihydropyridin-3-yl)methyl)-4-methyl-5-(1-morpholinopropyl)thiophene-3-carboxamide], the IC50 in experiment [1] was determined as 0.398 µM; in experiment [2], 3.16 µM.

As to `CCN(c1scc(C(=O)NCc2c(C)cc(C)[nH]c2=O)c1C)C1CCN(C(=O)OC(C)(C)C)CC1` [Example 11, tert-Butyl 4-((4-(((4,6-dimethyl-2-oxo-1,2-dihydropyridin-3-yl)methyl)carbamoyl)-3-methylthiophen-2-yl)(ethyl)amino)piperidine-1-carboxylate], the IC50 stood at 0.016 µM in experiment [1] and 0.02 µM in experiment [2].

As for `Cc1cc(C)c(CNC(=O)c2csc(C3CCCN3C3CCOCC3)c2C)c(=O)[nH]1` (stereo not shown) [Example 22, N-((4,6-Dimethyl-2-oxo-1,2-dihydropyridin-3-yl)methyl)-4-methyl-5-(1-(tetrahydro-2H-pyran-4-yl)pyrrolidin-2-yl)thiophene-3-carboxamide], the results for the IC50 in experiment [1] and in experiment [2] were 0.398 µM and 6.31 µM, respectively.

Turning to `Cc1cc(C)c(CNC(=O)c2csc(-c3cnn(C4CCNCC4)c3)c2C)c(=O)[nH]1` [Example 23, N-((4,6-dimethyl-2-oxo-1,2-dihydropyridin-3-yl)methyl)-4-methyl-5-(1-(piperidin-4-yl)-1H-pyrazol-4-yl)thiophene-3-carboxamide], the IC50 in experiment [1] was 0.501 µM; in experiment [2], 3.98 µM.

With `Cc1cc(C)c(CNC(=O)c2csc(C(C)N3CCOCC3)c2C)c(=O)[nH]1` (stereo not shown) [Example 26, N-((4,6-dimethyl-2-oxo-1,2-dihydropyridin-3-yl)methyl)-4-methyl-5-(1-morpholinoethyl)thiophene-3-carboxamide], the IC50 in experiment [1] amounted to 0.63 µM; in experiment [2] it was 5.01 µM.

On to `CCC(c1scc(C(=O)NCc2c(C)cc(C)[nH]c2=O)c1C)N1CCC(N(C)C)CC1` (stereo not shown) [Example 28, N-((4,6-dimethyl-2-oxo-1,2-dihydropyridin-3-yl)methyl)-5-(1-(4-(dimethylamino)piperidin-1-yl)propyl)-4-methylthiophene-3-carboxamide], for which the IC50 came to 0.019 µM in experiment [1] and 0.063 µM in experiment [2].

In the case of `CCN(c1c(C)c(C(=O)NCc2c(C)cc(C)[nH]c2=O)nn1C)C1CCOCC1` [Example 14, N-[(4,6-dimethyl-2-oxo-1,2-dihydro-3-pyridinyl)methyl]-5-[ethyl(tetrahydro-2H-pyran-4-yl)amino]-1,4-dimethyl-1H-pyrazole-3-carboxamide], the figures for the IC50 in experiment [1] and in experiment [2] were 0.63 µM and 2 µM, respectively.

Regarding `Cc1cc(C)c(CNC(=O)c2csc(C3CCN(C(=O)OC(C)(C)C)C3)c2C)c(=O)[nH]1` (stereo not shown) [Example 24, tert-Butyl 3-(4-(((4,6-dimethyl-2-oxo-1,2-dihydropyridin-3-yl)methyl)carbamoyl)-3-methylthiophen-2-yl)pyrrolidine-1-carboxylate], the figures for the IC50 in experiment [1] and in experiment [2] were 0.251 µM and 3.98 µM, respectively.

Take `CCN(c1scc(C(=O)NCc2c(C)cc(C(F)(F)F)[nH]c2=O)c1C)[C@H]1CC[C@H](N(C)C)CC1` [Example 17, 5-(((trans)-4-(Dimethylamino)cyclohexyl)(ethyl)amino)-4-methyl-N-((4-methyl-2-oxo-6-(trifluoromethyl)-1,2-dihydropyridin-3-yl)methyl)thiophene-3-carboxamide]: the half-inhibitory concentration (IC50) turned out to be 0.316 µM in experiment [1] and 0.63 µM in experiment [2].

Take `CCN(c1c(Cl)sc(C(=O)NCc2c(C)cc(C)[nH]c2=O)c1C)C1CCOCC1` [Example 3, 5-Chloro-N-((4,6-dimethyl-2-oxo-1,2-dihydropyridin-3-yl)methyl)-4-(ethyl(tetrahydro-2H-pyran-4-yl)amino)-3-methylthiophene-2-carboxamide]: the IC50 in experiment [1] was found to be 0.1 µM; in experiment [2], 0.2 µM.

Consider `Cc1cc(C)c(CNC(=O)c2cnn(CC3CCOCC3)c2C)c(=O)[nH]1` [Example 10, N-((4,6-dimethyl-2-oxo-1,2-dihydropyridin-3-yl)methyl)-5-methyl-1-((tetrahydro-2H-pyran-4-yl)methyl)-1H-pyrazole-4-carboxamide], for which the values for the IC50 in experiment [1] and in experiment [2] were 15.8 µM and ≥ 100 µM, respectively.

For `CCN(c1scc(C(=O)NCc2c(C)cc(C)n(C)c2=O)c1C)[C@H]1CC[C@H](N(C)C)CC1` [Example 32, 5-(((trans)-4-(Dimethylamino)cyclohexyl)(ethyl)amino)-4-methyl-N-((1,4,6-trimethyl-2-oxo-1,2-dihydropyridin-3-yl)methyl)thiophene-3-carboxamide], the half-maximal inhibitory concentration (IC50) was ≤ 0.01 µM in experiment [1] and 0.05 µM in experiment [2].

With `Cc1cc(C)c(CNC(=O)c2cnn(-c3ccccc3)c2C)c(=O)[nH]1` [Example 9, N-((4,6-dimethyl-2-oxo-1,2-dihydropyridin-3-yl)methyl)-5-methyl-1-phenyl-1H-pyrazole-4-carboxamide], the figures for the IC50 in experiment [1] and in experiment [2] were 20 µM and 63.1 µM, respectively.

Values taken from patent US9505745B2, “Enhancer of zeste homolog 2 inhibitors” (GlaxoSmithKline Intellectual Property (No.2) Limited, priority 2013, dated 2016).
